The record followed here is patent US11173145B2, “Compounds useful as inhibitors of indoleamine 2,3-dioxygenase and/or tryptophan dioxygenase” (Board of Regents, The University of Texas System, priority 2017, dated 2021).

As a reminder, the IC50 is the concentration that inhibits the measured activity by half. A lower IC50 goes with greater potency.

This experiment has as its target T1, IDO1 (Homo sapiens, UniProt P14902).
T1 construct: endogenous in cells; host or cells: HeLa cells (ATCC), IFNgamma-induced
The experiment can be described thus: IDO1 cell-based assay (HeLa cells, IFNgamma-induced, N-formylkynurenine/L-tryptophan by RFMS). The conditions noted are these: 10 ng/mL IFNgamma, 24 hours. The protocol:
HeLa cells were obtained from the American Type Culture Collection (ATCC) and maintained in DMEM media containing 10% FBS. Cells (7,000/well) were seeded onto a 384 well plate in 50 μL of media and incubated at 37° C., 5% CO2 overnight. Cell media was aspirated, fresh media containing 10 ng/mL IFNgamma was added, and cells were incubated in absence or presence of various concentrations of test compound (final 0.5% DMSO) for 24 hours. Aliquots of the cell conditioned media were removed from the cell plate, and mixed with an equal volume of 200 mM ZnSO4 to precipitate media containing proteins. Two volumes of acetonitrile were added, mixed, and samples were then centrifuged at 2250G for 20 minutes at 4° C. Aliquots of the supernatant were diluted 1:10 in 0.1% formic acid containing 3 μM of deuterated Tryptophan as an internal standard.
Samples were analyzed via RFMS to quantify N-Formyl Kynurenine (AUC) and L-tryptophan (AUC). A C18 cartridge was used with mobile phases of 0.1% Formic Acid and 80% ACN/0.1% Formic Acid under isocratic conditions. Dose-response curves were analyzed using IC50 regression curve fitting (GeneData Screener). […] Cell viability was also assessed using the Cell Titer Glo Kit (Promega) following manufacturer recommendation.

T1 sequence (P14902 whole entry): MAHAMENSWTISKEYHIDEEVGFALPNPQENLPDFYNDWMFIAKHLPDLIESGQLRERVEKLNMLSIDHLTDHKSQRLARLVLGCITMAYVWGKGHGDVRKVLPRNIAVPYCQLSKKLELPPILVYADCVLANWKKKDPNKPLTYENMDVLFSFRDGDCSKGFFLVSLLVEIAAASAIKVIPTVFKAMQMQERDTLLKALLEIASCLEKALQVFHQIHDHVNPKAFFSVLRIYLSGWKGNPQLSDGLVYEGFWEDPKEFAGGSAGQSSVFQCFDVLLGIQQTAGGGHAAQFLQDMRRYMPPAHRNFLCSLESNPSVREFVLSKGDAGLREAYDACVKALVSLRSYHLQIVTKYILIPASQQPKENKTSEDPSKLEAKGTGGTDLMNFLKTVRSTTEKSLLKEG

In the case of `CCC(NC(=O)c1ccc(Cl)cc1)[C@H]1[C@@H]2C[C@@H](Oc3cc(C)nc4ccc(F)cc34)C[C@@H]21` (stereo partly drawn) [Compound 20, 4-chloro-N-(1-((1R,3s,5S,6r)-3-((6-fluoro-2-methylquinolin-4-yl)oxy)bicyclo[3.1.0]hexan-6-yl)propyl)benzamide], the IC50 is < 200 nM.
Under `CCC(NC(=O)c1ccc(Cl)cc1)[C@H]1[C@@H]2C[C@@H](Oc3ncnc4cc(Cl)ccc34)C[C@@H]21` (stereo partly drawn) [Compound 21, 4-chloro-N-(1-((1R,3s,5S,6r)-3-((7-chloroquinazolin-4-yl)oxy)bicyclo[3.1.0]hexan-6-yl)propyl)benzamide] stands < 200 nM.
Under `CCC(NC(=O)c1ccc(Cl)cc1)C1C2CC(Oc3cc(C(F)(F)F)nc4ccc(F)cc34)CC21` [Compound 22, 4-chloro-N-(1-((1R,3s,5S,6r)-3-((6-fluoro-2-(trifluoromethyl)quinolin-4-yl)oxy)bicyclo[3.1.0]hexan-6-yl)propyl)benzamide] stands < 200 nM.
On to `O=C(NC[C@H]1[C@H]2C[C@H](Oc3cc(C(F)(F)F)nc4ccc(F)cc34)C[C@@H]12)c1ccc(Cl)cc1` [Compound 24, 4-chloro-N-(((1R,3s,5S,6s)-3-((6-fluoro-2-(trifluoromethyl)quinolin-4-yl)oxy)bicyclo[3.1.0]hexan-6-yl)methyl)benzamide], for which the IC50 is 200 to 2000 nM.
Under `O=C(NC1C2CC(Oc3cc(C(F)(F)F)nc4ccc(F)cc34)CC21)c1ccc(Cl)cc1` (stereo not drawn) [Compound 25, 4-chloro-N-(3-((6-fluoro-2-(trifluoromethyl)quinolin-4-yl)oxy)bicyclo[3.1.0]hexan-6-yl)benzamide] stands > 5000 nM.
`O=C(NC1C2CC(Oc3ccnc4ccccc34)CC21)c1ccc(Cl)cc1` (stereo not drawn) [Compound 26, 4-chloro-N-(3-(quinolin-4-yloxy)bicyclo[3.1.0]hexan-6-yl)benzamide]: the IC50 fell in the range of 200 to 2000 nM.
Consider `O=S(=O)(Cc1ccc(Br)cc1)NC1C2CC(Oc3ccnc4ccccc34)CC21` (stereo not drawn) [Compound 27, 1-(4-bromophenyl)-N-(3-(quinolin-4-yloxy)bicyclo[3.1.0]hexan-6-yl)methanesulfonamide], for which the IC50 is > 5000 nM.
For the compound `O=S(=O)(NC1C2CC(Oc3ccnc4ccccc34)CC21)c1ccc(Cl)cc1` (stereo not drawn) [Compound 28, 4-chloro-N-(3-(quinolin-4-yloxy)bicyclo[3.1.0]hexan-6-yl)benzenesulfonamide], the IC50 was > 5000 nM.
For the compound `O=C(Nc1ccc(Cl)cc1)N[C@H]1[C@@H]2C[C@H](Oc3ccnc4ccc(F)cc34)C[C@@H]21` [Compound 29, 1-(4-chlorophenyl)-3-((1R,3r,5S,6r)-3-((6-fluoroquinolin-4-yl)oxy)bicyclo[3.1.0]hexan-6-yl)urea], the IC50 is 200 to 2000 nM.
Under `O=C(Cc1ccc(Cl)cc1)NC1[C@H]2CC(Oc3ccnc4ccccc34)C[C@@H]12` (stereo partly drawn) [Compound 30, 2-(4-chlorophenyl)-N-((1R,5S)-3-(quinolin-4-yloxy)bicyclo[3.1.0]hexan-6-yl)acetamide] stands < 200 nM; under `O=C(Cc1ccc(Cl)cc1)NC1[C@H]2CC(Oc3ccnc4ccc(F)cc34)C[C@@H]12` (stereo partly drawn) [Compound 31, 2-(4-chlorophenyl)-N-((1R,3r,5S)-3-((6-fluoroquinolin-4-yl)oxy)bicyclo[3.1.0]hexan-6-yl)acetamide], 200 to 2000 nM; under `O=C(NC[C@@H]1[C@H]2C[C@@H](Oc3ccc4nccc(Cl)c4c3)C[C@@H]12)c1ccc(Cl)cc1` [Compound 33, 4-chloro-N-(((1R,3r,5S,6r)-3-((4-chloroquinolin-6-yl)oxy)bicyclo[3.1.0]hexan-6-yl)methyl)benzamide], 200 to 2000 nM.
Under `CCC(NC(=O)c1ccc(Cl)cc1)[C@H]1[C@@H]2C[C@@H](n3cnc4cc(F)ccc4c3=O)C[C@@H]21` (stereo partly drawn) [Compound 34, 4-chloro-N-(1-((1R,3s,5S,6r)-3-(7-fluoro-4-oxoquinazolin-3(4H)-yl)bicyclo[3.1.0]hexan-6-yl)propyl)benzamide] stands < 200 nM; under `CCC(NC(=O)c1ccc(Cl)cc1)[C@H]1[C@@H]2C[C@@H](Oc3ncnc4cc(F)ccc34)C[C@@H]21` (stereo partly drawn) [Compound 35, 4-chloro-N-(1-((1R,3s,5S,6r)-3-((7-fluoroquinazolin-4-yl)oxy)bicyclo[3.1.0]hexan-6-yl)propyl)benzamide], < 200 nM; under `CCC(NC(=O)c1ccc(Cl)cc1)C1C2CC(Oc3ncnc4cccc(F)c34)CC21` [Compound 37, 4-chloro-N-(1-((1R,3s,5S,6r)-3-((5-fluoroquinazolin-4-yl)oxy)bicyclo[3.1.0]hexan-6-yl)propyl)benzamide], < 200 nM.
Under `CCC(NC(=O)c1ccc(Cl)cc1)[C@H]1[C@@H]2C[C@@H](Oc3ncccc3F)C[C@@H]21` (stereo partly drawn) [Compound 39, 4-chloro-N-(1-((1R,3s,5S,6r)-3-((3-fluoropyridin-2-yl)oxy)bicyclo[3.1.0]hexan-6-yl)propyl)benzamide] stands < 200 nM; under `CCC(NC(=O)c1ccc(Cl)cc1)[C@H]1[C@@H]2C[C@@H](Oc3cccc(C)n3)C[C@@H]21` (stereo partly drawn) [Compound 40, 4-chloro-N-(1-((1R,3s,5S,6r)-3-((6-methylpyridin-2-yl)oxy)bicyclo[3.1.0]hexan-6-yl)propyl)benzamide], < 200 nM; under `CCC(NC(=O)c1ccc(Cl)cc1)[C@H]1[C@@H]2C[C@@H](Oc3ncccc3C)C[C@@H]21` (stereo partly drawn) [Compound 41, 4-chloro-N-(1-((1R,3s,5S,6r)-3-((3-methylpyridin-2-yl)oxy)bicyclo[3.1.0]hexan-6-yl)propyl)benzamide], < 200 nM.
As to `CCC(NC(=O)c1ccc(Cl)cc1)[C@H]1[C@@H]2C[C@@H](Oc3cc(F)ccc3F)C[C@@H]21` (stereo partly drawn) [Compound 42, 4-chloro-N-(1-((1R,3s,5S,6r)-3-(2,5-difluorophenoxy)bicyclo[3.1.0]hexan-6-yl)propyl)benzamide], the IC50 was < 200 nM.
Under `CCC(NC(=O)c1ccc(Cl)cc1)[C@H]1[C@@H]2C[C@@H](Oc3cccc4cccnc34)C[C@@H]21` (stereo partly drawn) [Compound 43, 4-chloro-N-(1-((1R,3s,5S,6r)-3-(quinolin-8-yloxy)bicyclo[3.1.0]hexan-6-yl)propyl)benzamide] stands < 200 nM.
On to `CCC(NC(=O)c1ccc(Cl)cc1)[C@H]1[C@@H]2C[C@@H](Oc3c(F)cccc3F)C[C@@H]21` (stereo partly drawn) [Compound 44, 4-chloro-N-(1-((1R,3s,5S,6r)-3-(2,6-difluorophenoxy)bicyclo[3.1.0]hexan-6-yl)propyl)benzamide], for which the half-inhibitory concentration (IC50) is < 200 nM.
As for `CCC(NC(=O)c1ccc(Cl)cc1)[C@H]1[C@@H]2C[C@@H](Oc3ccccc3CC(N)=O)C[C@@H]21` (stereo partly drawn) [Compound 45, N-(1-((1R,3s,5S,6r)-3-(2-(2-amino-2-oxoethyl)phenoxy)bicyclo[3.1.0]hexan-6-yl)propyl)-4-chlorobenzamide], the IC50 is < 200 nM.
Take `CCC(NC(=O)c1ccc(Cl)cc1)C1[C@H]2CC(Oc3cnnc4ccccc34)C[C@@H]12` (stereo partly drawn) [Compound 46, 4-chloro-N-(1-((1R,3s,5S,6r)-3-(cinnolin-4-yloxy)bicyclo[3.1.0]hexan-6-yl)propyl)benzamide]: the IC50 is < 200 nM.
Under `CCC(NC(=O)c1ccc(Cl)cc1)[C@H]1[C@@H]2C[C@@H](n3ncc(=O)c4ccccc43)C[C@@H]21` (stereo partly drawn) [Compound 47, 4-chloro-N-(1-((1R,3s,5S,6r)-3-(4-oxocinnolin-1(4H)-yl)bicyclo[3.1.0]hexan-6-yl)propyl)benzamide] stands < 200 nM; under `CCC(NC(=O)c1ccc(Cl)cc1)[C@H]1[C@@H]2C[C@@H](Oc3ccccc3CN(C)C)C[C@@H]21` (stereo partly drawn) [Compound 48, 4-chloro-N-(1-((1R,3s,5S,6r)-3-(2-((dimethylamino)methyl)phenoxy)bicyclo[3.1.0]hexan-6-yl)propyl)benzamide], 2000 to 5000 nM; under `CCC(NC(=O)c1ccc(Cl)cc1)[C@H]1[C@@H]2C[C@@H](Oc3cnc4ccccc4c3)C[C@@H]21` (stereo partly drawn) [Compound 49, 4-chloro-N-(1-((1R,3s,5S,6r)-3-(quinolin-3-yloxy)bicyclo[3.1.0]hexan-6-yl)propyl)benzamide], < 200 nM.
`CCC(NC(=O)c1ccc(Cl)cc1)[C@H]1[C@@H]2C[C@@H](Oc3cc(=O)n(C)c4ccccc34)C[C@@H]21` (stereo partly drawn) [Compound 50, 4-chloro-N-(1-((1R,3s,5S,6r)-3-((1-methyl-2-oxo-1,2-dihydroquinolin-4-yl)oxy)bicyclo[3.1.0]hexan-6-yl)propyl)benzamide]: the IC50 was < 200 nM.
Under `CCC(NC(=O)c1ccc(Cl)cc1)[C@H]1[C@@H]2C[C@@H](n3ncc4cnccc43)C[C@@H]21` (stereo partly drawn) [Compound 51, N-(1-((1R,3s,5S,6r)-3-(1H-pyrazolo[4,3-c]pyridin-1-yl)bicyclo[3.1.0]hexan-6-yl)propyl)-4-chlorobenzamide] stands < 200 nM; under `CCC(NC(=O)c1ccc(Cl)cc1)[C@H]1[C@@H]2C[C@@H](Oc3nc(C)ncc3F)C[C@@H]21` (stereo partly drawn) [Compound 52, 4-chloro-N-(1-((1R,3s,5S,6r)-3-((5-fluoro-2-methylpyrimidin-4-yl)oxy)bicyclo[3.1.0]hexan-6-yl)propyl)benzamide], < 200 nM; under `CCC(NC(=O)c1ccc(Cl)cc1)[C@H]1[C@@H]2C[C@@H](n3cnc4cc(Cl)ccc4c3=O)C[C@@H]21` (stereo partly drawn) [Compound 53, 4-chloro-N-(1-((1R,3s,5S,6r)-3-(7-chloro-4-oxoquinazolin-3(4H)-yl)bicyclo[3.1.0]hexan-6-yl)propyl)benzamide], < 200 nM.
